Experimental data from EP4782445A1, “CDK KINASE INHIBITOR AND USE THEREOF” (Abbisko Therapeutics Co., Ltd., priority 2023, dated 2025).

Assays:
[1] = biological target: T1, CDK4/cyclin D3 (Homo sapiens, UniProt P11802); assay: In vitro biochemical kinase activity assay for CDK4/cyclin D3 (HTRF)
T1 construct: purchased Carna
Protocol: II. In Vitro Biochemical Kinase Activity Assay for CDK4/Cyclin D3
The inhibitory effects of the compounds of the present invention on CDK4/cyclin D3 kinase activity were determined using an HTRF assay. The experimental process was as follows: • 1. The kinase reaction was carried out in a 384-well plate. 4.9 nM CDK4/cyclin D3 (Carna), 1 mM (or 80 µM) ATP, and 0.3 µM biotin-labeled substrate protein Rb-biotin (Cisbio) were incubated at 30°C for 90 min in a buffer system composed of 50 mM MgCl2, 1 mM DTT, and basal kinase buffer (Cisbio). • 2. The detection solution (Cisbio, containing reagents that specifically recognize phosphorylated Rb and Rb-biotin proteins, respectively) was added. The plate was then sealed with a film (to protect from light and volatilization) and incubated at 25°C for 60 min. • 3. The plate was transferred to an Envision plate reader to detect FRET signals. (The 665/615 ratio was calculated by reading the emission at 665 nm and 615 nM, respectively.) • 4. The IC50 values were determined by analyzing the inhibition at varying compound concentrations using Model 205 in the XLfit software.

[2] = biological target: T2, CDK6/cyclin D3 (Homo sapiens, UniProt Q00534); assay: In vitro biochemical kinase activity assay for CDK6/cyclin D3 (HTRF)
T2 construct: purchased Carna
Protocol: III. In Vitro Biochemical Kinase Activity Assay for CDK6/Cyclin D3
The inhibitory effects of the compounds of the present invention on CDK6/cyclin D3 kinase activity were determined using an HTRF assay. The experimental process was as follows: 1. The kinase reaction was carried out in a 384-well plate. 0.02 nM CDK6/cyclin D3 (Carna), 1 mM (or 100 µM) ATP, and 0.3 µM biotin-labeled substrate protein Rb-biotin (Cisbio) were incubated at 30°C for 60 min in a buffer system composed of 5 mM MgCl2, 1 mM DTT, and basal kinase buffer (Cisbio). 2. The detection solution (Cisbio, containing reagents that specifically recognize phosphorylated Rb and Rb-biotin proteins, respectively) was added. The plate was then sealed with a film (to protect from light and volatilization) and incubated at 25°C for 60 min. 3. The plate was transferred to an Envision plate reader to detect FRET signals. (The 665/615 ratio was calculated by reading the emission at 665 nm and 615 nM, respectively.) 4. The IC50 values were determined by analyzing the inhibition at varying compound concentrations using Model 205 in the XLfit software.

[3] = data marked with *: 1 mM ATP in Step 1
[4] = unmarked data: 80 µM ATP in Step 1
[5] = unmarked data: 100 µM ATP in Step 1

T1 sequence (P11802 whole entry): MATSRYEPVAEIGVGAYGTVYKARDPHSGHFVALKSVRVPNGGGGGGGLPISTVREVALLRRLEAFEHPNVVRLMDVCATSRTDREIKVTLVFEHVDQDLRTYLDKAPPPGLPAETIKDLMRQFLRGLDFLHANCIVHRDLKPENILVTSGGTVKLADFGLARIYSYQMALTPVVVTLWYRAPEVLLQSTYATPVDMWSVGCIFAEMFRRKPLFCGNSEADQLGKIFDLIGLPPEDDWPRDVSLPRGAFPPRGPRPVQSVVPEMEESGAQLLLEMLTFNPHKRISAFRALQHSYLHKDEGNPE
T1 sequence (P30281 whole entry partner): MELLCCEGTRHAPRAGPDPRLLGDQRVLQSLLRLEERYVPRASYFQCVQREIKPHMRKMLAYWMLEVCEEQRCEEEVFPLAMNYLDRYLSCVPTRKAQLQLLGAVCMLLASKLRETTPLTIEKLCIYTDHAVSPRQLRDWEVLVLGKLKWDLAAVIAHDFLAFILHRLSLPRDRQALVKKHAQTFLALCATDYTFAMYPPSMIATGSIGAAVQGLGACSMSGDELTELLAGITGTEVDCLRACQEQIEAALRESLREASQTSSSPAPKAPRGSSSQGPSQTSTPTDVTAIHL
T2 sequence (Q00534 whole entry): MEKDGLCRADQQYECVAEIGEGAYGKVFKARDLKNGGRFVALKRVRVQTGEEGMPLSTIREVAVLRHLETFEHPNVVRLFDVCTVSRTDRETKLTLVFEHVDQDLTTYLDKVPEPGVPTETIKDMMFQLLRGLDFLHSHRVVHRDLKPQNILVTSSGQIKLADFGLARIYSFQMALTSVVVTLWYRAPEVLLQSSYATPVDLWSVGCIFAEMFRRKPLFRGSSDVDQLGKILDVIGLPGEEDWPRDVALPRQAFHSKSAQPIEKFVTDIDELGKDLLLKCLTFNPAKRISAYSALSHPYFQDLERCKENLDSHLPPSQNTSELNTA
T2 sequence (P30281 whole entry partner): as the sequence (P30281 whole entry partner) above

## (3S,4R)-4-((5-chloro-4-((1-(1, 1-difluoropropan-2-yl)-2-(2-hydroxypropan-2-yl)-1H-imidazol-5-yl)ethynyl)pyrimidin-2-yl)amino)tetrahydro-2H-pyran-3-ol [Example 133]
[1]; [3]
  IC50: 260 nM
[2]; [3]
  IC50: 1140 nM

## CC(C)n1c(C#Cc2nc(Nc3ccc(N4CCN(C)CC4)cn3)ncc2Cl)cnc1C(C)(C)O [Example 66, 2-(5-((5-chloro-2-((5-(4-methylpiperazin-1-yl)pyridin-2-yl)amino)pyrimidin-4-yl)ethynyl)-1-isopropyl-1H-imidazol-2-yl)propan-2-ol]
[1]; [4]
  IC50: 1.03 nM
[2]; [5]
  IC50: 1.9 nM

## CC(C)n1c(C#Cc2nc(N[C@@H]3CCOC[C@H]3O)ncc2Cl)cnc1C1CCO1 (stereo partly drawn) [Example 112, (3S,4R)-4-((5-chloro-4-((1-isopropyl-2-(oxetan-2-yl)-1H-imidazol-5-yl)ethynyl)pyrimidin-2-yl)amino)tetrahydro-2H-pyran-3-ol]
[1]; [3]
  IC50: 179 nM
[2]; [3]
  IC50: 1240 nM

## CC(C)n1c(C#Cc2nc(N[C@@H]3CCOC[C@H]3O)ncc2Cl)cnc1CN1CCC[C@H](O)C1 [Example 75, (S)-1-((5-((5-chloro-2-(((3 S,4R)-3-hydroxytetrahydro-2H-pyran-4-yl)amino)pyrimidin-4-yl)ethynyl)-1-isopropyl-1H-imidazol-2-yl)methyl)piperidin-3-ol]
[1]; [3]
  IC50: 21.2 nM
[2]; [3]
  IC50: 1160 nM

## CC(C)n1c(C#Cc2nc(Nc3ccc(N4CCN(C)CC4=O)cn3)ncc2Cl)cnc1C(C)(C)O [Example 94, 1-(6-((5-chloro-4-((2-(2-hydroxypropan-2-yl)-1-isopropyl-1H-imidazol-5-yl)ethynyl)pyrimidin-2-yl)amino)pyridin-3-yl)-4-methylpiperazin-2-one]
[1]; [3]
  IC50: 5.53 nM
[2]; [3]
  IC50: 17.6 nM

## CC1(C)OCCn2ncc(C#Cc3nc(N[C@@H]4CCOC[C@H]4O)ncc3Cl)c21 [Example 111, (3 S,4R)-4-((5-chloro-4-((4,4-dimethyl-6,7-dihydro-4H-pyrazolo[5,1-c][1,4]oxazin-3-yl)ethynyl)pyrimidin-2-yl)amino)tetrahydro-2H-pyran-3-ol]
[1]; [3]
  IC50: 47.1 nM
[2]; [3]
  IC50: 335 nM

## CC(C)c1nn(C)cc1C#Cc1nc(N[C@@H]2CCOC[C@H]2O)ncc1Cl [Example 54, (3 S,4R)-4-((5-chloro-4-((3-isopropyl-1-methyl-1H-pyrazol-4-yl)ethynyl)pyrimidin-2-yl)amino)tetrahydro-2H-pyran-3-ol]
[1]; [4]
  IC50: 59 nM
[2]; [5]
  IC50: 164 nM

## CCN1CC2(C1)CN(c1ccc(Nc3ncc(Cl)c(C#Cc4cnc(C)n4C(C)C)n3)nc1)C2 [Example 80, 5-chloro-N-(5-(6-ethyl-2,6-diazaspiro[3.3]heptan-2-yl)pyridin-2-yl)-4-((1-isopropyl-2-methyl-1H-imidazol-5-yl)ethynyl)pyrimidin-2-amine]
[1]; [3]
  IC50: 2.65 nM
[2]; [3]
  IC50: 12 nM

## CC(C)n1c(C#Cc2nc(N[C@@H]3CCOC[C@H]3O)ncc2Cl)cnc1CN1CCC[C@@H](O)C1 [Example 78, (R)-1-((5-((5-chloro-2-(((3 S,4R)-3-hydroxytetrahydro-2H-pyran-4-yl)amino)pyrimidin-4-yl)ethynyl)-1-isopropyl-1H-imidazol-2-yl)methyl)piperidin-3-ol]
[1]; [3]
  IC50: 75.5 nM
[2]; [3]
  IC50: 393 nM

## COC1COCC[C@H]1Nc1ncc(Cl)c(C#Cc2cnc(C(C)(C)O)n2C(C)C)n1 (stereo partly drawn) [Example 92, 2-(5-((5-chloro-2-(((4R)-3-methoxytetrahydro-2H-pyran-4-yl)amino)pyrimidin-4-yl)ethynyl)-1-isopropyl-1H-imidazol-2-yl)propan-2-ol]
[1]; [3]
  IC50: 99.7 nM
[2]; [3]
  IC50: 520 nM

## CC(C)n1c(C#Cc2nc(N[C@@H]3CCOC[C@H]3O)ncc2Cl)cnc1C1(O)CC1 [Example 121, (3 S,4R)-4-((5-chloro-4-((2-(1-hydroxycyclopropyl)-1-isopropyl-1H-imidazol-5-yl)ethynyl)pyrimidin-2-yl)amino)tetrahydro-2H-pyran-3-ol]
[1]; [3]
  IC50: 9.24 nM
[2]; [3]
  IC50: 75.9 nM

## CC(C)n1c(C#Cc2nc(N[C@@H]3CCOC[C@H]3O)ncc2Cl)cnc1CN1CCC[C@@H](C#N)C1 [Example 98, (R)-1-((5-((5-chloro-2-(((3 S,4R)-3-hydroxytetrahydro-2H-pyran-4-yl)amino)pyrimidin-4-yl)ethynyl)-1-isopropyl-1H-imidazol-2-yl)methyl)piperidin-3-carbonitrile]
[1]; [3]
  IC50: 8.08 nM
[2]; [3]
  IC50: 198 nM

## CC(C)n1c(C#Cc2nc(N[C@@H]3CCC[C@@H](C(=O)N(C)C)C3)ncc2Cl)cnc1C(C)(C)O [Example 96, (1R,3R)-3-((5-chloro-4-((2-(2-hydroxypropan-2-yl)-1-isopropyl-1H-imidazol-5-yl)ethynyl)pyrimidin-2-yl)amino)-N,N-dimethylcyclohexane-1-carboxamide]
[1]; [3]
  IC50: 3290 nM

## CCN1CC2(C1)CN(c1ccc(Nc3ncc(F)c(C#Cc4cnn(C)c4C(C)(C)O)n3)nc1)C2 [Example 83, 2-(4-((2-((5-(6-ethyl-2,6-diazaspiro[3.3]heptan-2-yl)pyridin-2-yl)amino)-5-fluoropyrimidin-4-yl)ethynyl)-1-methyl-1H-pyrazol-5-yl)propan-2-ol]
[1]; [3]
  IC50: 2860 nM

## CCN1CCN(Cc2ccc(Nc3ncc(Cl)c(C#Cc4cnc(CN5CCC[C@H](O)C5)n4C(C)C)n3)nc2)CC1 [Example 107, (S)-1-((5-((5-chloro-2-((5-((4-ethylpiperazin-1-yl)methyl)pyridin-2-yl)amino)pyrimidin-4-yl)ethynyl)-1-isopropyl-1H-imidazol-2-yl)methyl)piperidin-3-ol]
[1]; [3]
  IC50: 8.86 nM
[2]; [3]
  IC50: 116 nM

## Cc1ncc(C#Cc2nc(N[C@@H]3CCOC[C@H]3O)ncc2Cl)n1C(C)C [Example 79, (3 S,4R)-4-((5-chloro-4-((1-isopropyl-2-methyl-1H-imidazol-5-yl)ethynyl)pyrimidin-2-yl)amino)tetrahydro-2H-pyran-3-ol]
[1]; [3]
  IC50: 17.2 nM
[2]; [3]
  IC50: 179 nM

## CC(C)n1c(C#Cc2nc(N[C@@H]3CCOC[C@H]3O)ncc2Cl)cnc1C(C)(O)C1CC1 (stereo partly drawn) [Example 125, (3 S,4R)-4-((5-chloro-4-((2-(1-cyclopropyl-1-hydroxyethyl)-1-isopropyl-1H-imidazol-5-yl)ethynyl)pyrimidin-2-yl)amino)tetrahydro-2H-pyran-3-ol]
[1]; [3]
  IC50: 11.6 nM
[2]; [3]
  IC50: 65.4 nM

## CC(C)n1c(C#Cc2nc(Nc3ccc(C(=O)N4CCCC4)cn3)ncc2Cl)cnc1C(C)(C)O [Example 114, (6-((5-chloro-4-((2-(2-hydroxypropan-2-yl)-1-isopropyl-1H-imidazol-5-yl)ethynyl)pyrimidin-2-yl)amino)pyridin-3-yl)(pyrrolidin-1-yl)methanone]
[1]; [3]
  IC50: 7.99 nM
[2]; [3]
  IC50: 28.4 nM

## CC(C)c1c(C#Cc2nc(N[C@@H]3CCOC[C@H]3O)ncc2Cl)cnn1CC(F)F [Example 128, (3 S,4R)-4-((5-chloro-4-((1-(2,2-difluoroethyl)-5-isopropyl-1H-pyrazol-4-yl)ethynyl)pyrimidin-2-yl)amino)tetrahydro-2H-pyran-3-ol]
[1]; [3]
  IC50: 53.3 nM
[2]; [3]
  IC50: 254 nM

## CC(C)n1c(C#Cc2nc(N[C@@H]3CCOC[C@H]3O)ncc2Br)cnc1C(C)(C)O [Example 88, (3S,4R)-4-((5-bromo-4-((2-(2-hydroxypropan-2-yl)-1-isopropyl-1H-imidazol-5-yl)ethynyl)pyrimidin-2-yl)amino)tetrahydro-2H-pyran-3-ol]
[1]; [3]
  IC50: 12.6 nM
[2]; [5]
  IC50: 51.1 nM

## (3 S,4R)-4-((5-chloro-4-((1-(1, 1-difluoropropan-2-yl)-1H-imidazol-5-yl)ethynyl)pyrimidin-2-yl)amino)tetrahydro-2H-pyran-3-ol [Example 134]
[1]; [3]
  IC50: 36.1 nM
[2]; [3]
  IC50: 230 nM

## Cn1ncc(C#Cc2nc(N[C@@H]3CCOC[C@H]3O)ncc2Cl)c1C(C)(C)C [Example 127, (3 S,4R)-4-((4-((5-(tert-butyl)-1-methyl-1H-pyrazol-4-yl)ethynyl)-5-chloropyrimidin-2-yl)amino)tetrahydro-2H-pyran-3-ol]
[1]; [3]
  IC50: 137 nM
[2]; [3]
  IC50: 455 nM

## CC(C)c1c(C#Cc2nc(Nc3ccc(C4CCN(C)CC4)cn3)ncc2F)cnn1C [Example 59, 5-fluoro-4-((5-isopropyl-1-methyl-1H-pyrazol-4-yl)ethynyl)-N-(5-(1-methylpiperidin-4-yl)pyridin-2-yl)pyrimidin-2-amine]
[1]; [4]
  IC50: 9.64 nM
[2]; [5]
  IC50: 38.3 nM

## CC(C)n1c(C#Cc2nc(N[C@@H]3CCOC[C@H]3O)ncc2F)cnc1CN1CCC[C@H](O)C1 [Example 102, (S)-1-((5-((5-fluoro-2-(((3 S,4R)-3-hydroxytetrahydro-2H-pyran-4-yl)amino)pyrimidin-4-yl)ethynyl)-1-isopropyl-1H-imidazol-2-yl)methyl)piperidin-3-ol]
[1]; [3]
  IC50: 1040 nM
